Drawing on US20240158394A1, “NEK7 INHIBITORS” (Halia Therapeutics, Inc., priority 2022, published 2024), this text covers IC50 for ten compounds.

The structures appear in SMILES notation.

The target of this experiment is full-length recombinant human NEK7 (Homo sapiens (Human), UniProt Q8TDX7). In words: NEK7 Enzymatic Assay. The experiment is classed as biochemical. As to conditions: casein substrate, [33P]-ATP, 2 hours at room temperature. The procedure:
Casein substrate (from bovine milk, hydrolyzed and partially dephosphorylated mixture of α, β and κ caseins, obtained from Sigma Aldrich, catalogue #C4765, diluted in distilled water to a final concentration of 1 mg/mL) and full-length recombinant human NEK7 (expressed by baculovirus in Sf9 insect cells using a N-terminal GST tag, obtained from SignalChem, catalogue #N09-10G, 0.1 μg/μL) were mixed in assay buffer (20 mM HEPES pH 7.5, 10 mM MgCl2, 1 mM EGTA, 0.02% Brij35, 0.02 mg/mL BSA, 0.1 mM Na3VO4, 2 mM DTT, 1% DMSO). Compounds of interest (serial 3-fold dilution in DMSO from 10 μM to 0.5 nM) or vehicle (1% DMSO) were dispensed into the kinase reaction mixture by Acoustic technology (Echo550; nanoliter range). After incubation at room temperature for 20 minutes, the kinase reaction was initiated by addition of [^33P]-ATP (specific activity 10 μCi/μL) and the mixture was incubated at room temperature for 2 hours. The reaction was then stopped by spotting the reaction mixture on strips of phosphocellulose P81 paper. Following washing, the radioactivity of the P81 paper was measured and kinase activity data were expressed as the percent remaining kinase activity in test samples compared to vehicle reactions. IC50 values and curve fits were obtained using Prism (GraphPad Software).

Chain of full-length recombinant human NEK7 (Q8TDX7 whole entry): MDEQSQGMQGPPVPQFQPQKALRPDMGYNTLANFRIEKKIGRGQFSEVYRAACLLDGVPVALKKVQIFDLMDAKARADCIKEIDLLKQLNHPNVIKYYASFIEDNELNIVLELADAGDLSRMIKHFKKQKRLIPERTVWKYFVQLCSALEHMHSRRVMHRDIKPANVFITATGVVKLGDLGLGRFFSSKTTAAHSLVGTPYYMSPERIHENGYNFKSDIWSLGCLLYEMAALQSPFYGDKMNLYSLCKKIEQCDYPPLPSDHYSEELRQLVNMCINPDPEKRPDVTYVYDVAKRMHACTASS

Regarding `CN1CCC(Oc2ccc(NC(=O)Nc3ccc(-c4cn(C5CC5)c5ncnc(N)c45)c4ccoc34)cc2C(F)(F)F)CC1` [Example I-67, 1-(4-(4-amino-7-cyclopropyl-7H-pyrrolo[2,3-d]pyrimidin-5-yl)benzofuran-7-yl)-3-(4-((1-methylpiperidin-4-yl)oxy)-3-(trifluoromethyl)phenyl)urea], the IC50 (usually the point on the concentration scale where inhibition reaches its midpoint) lay in the range of 0.5 to 2 µM.
Regarding `CC(C)(C)c1cc(NC(=O)Nc2ccc(-c3cn(C4CC4)c4ncnc(N)c34)n3ccnc23)n(-c2ccc(Cl)cc2)n1` [Example I-13, 1-(5-(4-amino-7-cyclopropyl-7H-pyrrolo[2,3-d]pyrimidin-5-yl)imidazo[1,2-a]pyridin-8-yl)-3-(3-(tert-butyl)-1-(4-chlorophenyl)-1H-pyrazol-5-yl)urea], the IC50 lay in the range of 0.5 to 2 µM.
The same measure for `CC(C)(F)c1cc(NC(=O)Nc2ccc(-c3cn(C4CC4)c4ncnc(N)c34)n3ccnc23)on1` [Example I-20, 1-(5-(4-amino-7-cyclopropyl-7H-pyrrolo[2,3-d]pyrimidin-5-yl)imidazo[1,2-a]pyridin-8-yl)-3-(3-(2-fluoropropan-2-yl)isoxazol-5-yl)urea]: < 0.2 µM; for `CCN1CCC(Oc2ccc(NC(=O)Nc3ccc(-c4cn(C5CC5)c5ncnc(N)c45)c4c3OC(C)(C)C4)cc2C(F)(F)F)CC1` [Example I-123, 1-(4-(4-amino-7-cyclopropyl-7H-pyrrolo[2,3-d]pyrimidin-5-yl)-2,2-dimethyl-2,3-dihydrobenzofuran-7-yl)-3-(4-((1-ethylpiperidin-4-yl)oxy)-3-(trifluoromethyl)phenyl)urea]: > 2 µM.
The same measure for `CCN1CCC(Oc2ccc(NC(=O)Nc3ccc(-c4cn(C5CCC5)c5ncnc(N)c45)n4ccnc34)cc2C(F)(F)F)CC1` [Example I-137, 1-(5-(4-amino-7-cyclobutyl-7H-pyrrolo[2,3-d]pyrimidin-5-yl)imidazo[1,2-a]pyridin-8-yl)-3-(4-((1-ethylpiperidin-4-yl)oxy)-3-(trifluoromethyl)-phenyl)urea]: < 0.2 µM; for `CN1CCC(Oc2ccc(NC(=O)Nc3ccc(-c4cn(C5CC5)c5ncnc(N)c45)c4cnoc34)cc2C(F)(F)F)CC1` [Example I-70, 1-(4-(4-amino-7-cyclopropyl-7H-pyrrolo[2,3-d]pyrimidin-5-yl)benzo[d]isoxazol-7-yl)-3-(4-((1-methylpiperidin-4-yl)oxy)-3-(trifluoromethyl)-phenyl)urea]: < 0.2 µM.
As for `CC(C)(C)c1cc(NC(=O)Nc2ccc(-c3cn(C4CC4)c4ncnc(N)c34)n3ccnc23)no1` [Example I-27, 1-(5-(4-amino-7-cyclopropyl-7H-pyrrolo[2,3-d]pyrimidin-5-yl)imidazo[1,2-a]pyridin-8-yl)-3-(5-(tert-butyl)isoxazol-3-yl)urea], the figure is < 0.2 µM; as for `CCN1CCC(Oc2ccc(NC(=O)Nc3ccc(-c4cn(C5CC5)c5ncnc(N)c45)n4ccnc34)cc2C(F)(F)F)CC1` [Example I-38, 1-(5-(4-amino-7-cyclopropyl-7H-pyrrolo[2,3-d]pyrimidin-5-yl)imidazo[1,2-a]pyridin-8-yl)-3-(4-((1-ethylpiperidin-4-yl)oxy)-3-(trifluoromethyl)-phenyl)urea], < 0.2 µM; as for `CN1CCN(Cc2ccc(NC(=O)Nc3ccc(-c4cn(C5CC5)c5ncnc(N)c45)c4c3OC(C)(C)C4)cc2C(F)(F)F)CC1` [Example I-60, 1-(4-(4-amino-7-cyclopropyl-7H-pyrrolo[2,3-d]pyrimidin-5-yl)-2,2-dimethyl-2,3-dihydrobenzofuran-7-yl)-3-(4-((4-methylpiperazin-1-yl)-methyl)-3-(trifluoromethyl)-phenyl)urea], > 2 µM.
`CCN1CCN(Cc2ccc(NC(=O)Nc3ccc(-c4cn(C5CC5)c5ncnc(N)c45)n4ccnc34)cc2C(F)(F)F)CC1` [Example I-35, 1-(5-(4-amino-7-cyclopropyl-7H-pyrrolo[2,3-d]pyrimidin-5-yl)imidazo[1,2-a]pyridin-8-yl)-3-(4-((4-ethylpiperazin-1-yl)methyl)-3-(trifluorometh-yl)phenyl)urea]: the IC50 was < 0.2 µM.
